These results are taken from PMC10194981, “Chemosensory protein regulates the behavioural response of Frankliniella intonsa and Frankliniella occidentalis to tomato zonate spot virus–Infected pepper (Capsicum annuum)” (PLOS Pathogens, 2023).

Assay [1] has as its system F. intonsa antennae. The assay can be described thus: Electroantennogram (EAG) assay. Further details: species or system Frankliniella intonsa. The settings on record: excised F. intonsa antennae. Here is the method:
The FintCSP1, FintCSP2, FintOBP, FintOR, FoccCSP, and enhanced green fluorescent protein (EGFP) coding sequences were obtained from GenBank under accession numbers MT199111, MT211602, OK067245, MT211603, AEP27186.1, and U55761.1, respectively. Primers were designed using Primer Premier 5.0, and the T7 promoter sequence (5′-[…]-3′) was added to the 5′ end of each primer (S1 Table). DNA fragments containing T7 promoter sequences were amplified by PCR using pEASY-T1/target gene or pUC-EGFP (preserved in the laboratory) plasmid DNA as template. Then, a double-stranded RNA (dsRNA) was produced from each target gene using the HiScribe T7 Quick High Yield RNA Synthesis Kit (New England Biolabs) according to the manufacturer’s instructions. Six hundred 2-day-old female F. intonsa or two hundred 2-day-old female F. occidentalis adults were anesthetized using CO2 and microinjected with 40 nL (3 μg/μL) dsRNA (dsFintCSP1 dsFintCSP2, dsFintOBP, dsFintOR or dsFoccCSP or dsEGFP) using a CellTram Oil microinjector (Eppendorf, Hamburg, Germany). The injected thrips were kept on broad beans in an artificial climate incubator as described above and used in subsequent RNAi experiments. Three biological replicates were conducted for each treatment with each dsRNA.
At 24 h after dsRNA injection, the electrophysiological responses of F. intonsa antennae to six volatile components (i.e., m-cymene, cis-3-hexenal, (+)-2-carene, trans-2-hexenal, α-phellandrene, and α-humulene) or F. occidentalis antennae to cis-3-hexenal were recorded using EAG. Antennae of female adult thrips were cut off at the base, and the distal terminus was carefully removed. The tested compounds were dissolved in liquid paraffin, with pure liquid paraffin used as a negative control. An Ag-AgCl2 glass electrode and Kaissling electrode solution were used in the experiment according to Tian et al.. The base of the antenna was inserted into the glass capillary filled with electrode solution at the end of the reference electrode; the top of the antenna was connected to the glass capillary at the end of the recording electrode to ensure no bubbles in the glass capillary. After successful connection, the antennae were stimulated with each chemical in the following order: liquid paraffin, volatile compounds, and liquid paraffin. Stimulus time was 0.2 s with each stimulus at 40 s intervals. At least 10 antennae were tested for each volatile compound. The EAG values to volatile compounds were calculated using the following equation: absolute value of EAG reaction = reaction value of the tested sample—average value of two control measurements.

For assay [2], the target named is FintCSP1-Val132Ala (Frankliniella intonsa, UniProt A0A891LVF4, V132A). Description: Fluorescence (1-NPN) binding and competitive binding assay, FintCSP1 mutant (negative control residue). Here is the method:
(§1) The binding affinity of FintCSP1 and FoccCSP to the fluorescent probe N-phenyl-1-naphthylamine (1-NPN) was tested using a Spectramax M2 fluorescence spectrometer (Molecular Devices, USA) as reported previously. Volatile compounds and 1-NPN were first dissolved to a concentration of 1 mM in HPLC-grade methanol and dissolved to their indicated final concentration (2–20 μM) to titrate 2 μM protein solutions resuspended in 50 mM Tris-HCl (pH 7.4). The 1-NPN/FintCSP1 or 1-NPN/FoccCSP mixture was excited at 280 nm, and the emission spectra were recorded at 415 nm. The binding constants (Kd) of FintCSP1 or FoccCSP to 1-NPN were calculated by Scatchard analysis using Prism 5 software (GraphPad, La Jolla, CA, USA). Assuming a protein activity of 100% and that the volatile compound binds to the protein in a 1:1 ratio at saturation, the dissociation constants (Ki) of FintCSP1 or FoccCSP for each ligand were calculated according to the IC50 (the concentration when the ligand replaces 50% of the probe) value of the volatile compounds. The Ki values were calculated according to the following equation: Ki = [IC50]/(1 + [1-NPN]/K1-NPN), where [1-NPN] is the free concentration of 1-NPN, and K1-NPN is the Kd of the 1-NPN/FintCSP1 or 1-NPN/FoccCSP.
(§2) To verify the key amino acids of FintCSP1 and FoccCSP that bind to cis-3-hexenal, six amino acid residues of FintCSP1 were mutated (Lys26Ala, Phe27Ala, Thr28Ala, Glu67Ala, Ser84Ala, and the negative control residue Val132Ala) and nine amino acid residues of FoccCSP were mutated (Lys26Ala, Phe27Ala, Thr28Ala, Thr29Ala, Tyr31Ala, Asp64Ala, Glu67Ala, Gln87Ala, and the negative control residue Val132Ala) with the Fast Mutagenesis System Kit (Transgen Biotech, Beijing, China) using the pET-30a/FintCSP1 and pET-30a/FoccCSP plasmid DNA as template, respectively. […] After validation by sequencing, each recombinant variant protein was produced and purified as described above, and their binding affinity to cis-3-hexenal was measured as described above.

For assay [3], the target named is FintCSP1-Lys26Ala (Frankliniella intonsa, UniProt A0A891LVF4, K26A). The assay can be described thus: Fluorescence (1-NPN) binding and competitive binding assay, FintCSP1 mutant. Here is the method:
as §1, with “Volatile compounds and 1-NPN were first dissolved to a concentration of 1 mM in HPLC-grade methanol and dissolved to their indicated final concentration (2–20 μM) to titrate 2 μM protein solutions resuspended in 50 mM Tris-HCl (pH 7.4).” left out
(§3) To verify the key amino acids of FintCSP1 and FoccCSP that bind to cis-3-hexenal, six amino acid residues of FintCSP1 were mutated (Lys26Ala, Phe27Ala, Thr28Ala, Glu67Ala, Ser84Ala, and the negative control residue Val132Ala) and nine amino acid residues of FoccCSP were mutated (Lys26Ala, Phe27Ala, Thr28Ala, Thr29Ala, Tyr31Ala, Asp64Ala, Glu67Ala, Gln87Ala, and the negative control residue Val132Ala) with the Fast Mutagenesis System Kit (Transgen Biotech, Beijing, China) using the pET-30a/FintCSP1 and pET-30a/FoccCSP plasmid DNA as template, respectively. Specific primers were designed using Primer Premier 5.0 according to the instructions of the Fast Mutagenesis System Kit (S1 Table). After validation by sequencing, each recombinant variant protein was produced and purified as described above, and their binding affinity to cis-3-hexenal was measured as described above.

In assay [4] the target is FintCSP1-Phe27Ala (Frankliniella intonsa, UniProt A0A891LVF4, F27A). Described as above. Here is the method: as §1, with “Volatile compounds and 1-NPN were first dissolved to a concentration of 1 mM in HPLC-grade methanol and dissolved to their indicated final concentration (2–20 μM) to titrate 2 μM protein solutions resuspended in 50 mM Tris-HCl (pH 7.4).” left out
Chain of FintCSP1-Phe27Ala (A0A891LVF4 entry or part of it F27A): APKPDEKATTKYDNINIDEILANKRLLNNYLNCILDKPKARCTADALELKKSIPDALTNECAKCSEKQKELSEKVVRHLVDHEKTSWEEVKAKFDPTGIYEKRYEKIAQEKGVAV
as §3

For assay [5], the target named is FintCSP1-Thr28Ala (Frankliniella intonsa, UniProt A0A891LVF4, T28A). The assay is described as above. Here is the method:
as §1, with “Volatile compounds and 1-NPN were first dissolved to a concentration of 1 mM in HPLC-grade methanol and dissolved to their indicated final concentration (2–20 μM) to titrate 2 μM protein solutions resuspended in 50 mM Tris-HCl (pH 7.4).” left out
as §3

For assay [6], the target named is FintCSP1-Glu67Ala (Frankliniella intonsa, UniProt A0A891LVF4, E67A). Described as above. Here is the method:
as §1, with “Volatile compounds and 1-NPN were first dissolved to a concentration of 1 mM in HPLC-grade methanol and dissolved to their indicated final concentration (2–20 μM) to titrate 2 μM protein solutions resuspended in 50 mM Tris-HCl (pH 7.4).” left out
as §3

The target in assay [7] is FoccCSP-Val132Ala (Frankliniella occidentalis, UniProt G4Y3X1, V132A). Description: Fluorescence (1-NPN) binding and competitive binding assay, FoccCSP mutant (negative control residue). Here is the method:
as §1, §3

Assay [8] deals with FintCSP1-Ser84Ala (Frankliniella intonsa, UniProt A0A891LVF4, S84A). Description: Fluorescence (1-NPN) binding and competitive binding assay, FintCSP1 mutant. Here is the method: as §1, §2
Chain of FintCSP1-Ser84Ala (A0A891LVF4 entry or part of it S84A): as the sequence (A0A891LVF4 entry or part of it F27A) above, with A8F, S65A counted along it
The target of assay [9] is FoccCSP-Thr29Ala (Frankliniella occidentalis, UniProt G4Y3X1, T29A). Description: Fluorescence (1-NPN) binding and competitive binding assay, FoccCSP mutant. Here is the method: as §1, with “Volatile compounds and 1-NPN were first dissolved to a concentration of 1 mM in HPLC-grade methanol and dissolved to their indicated final concentration (2–20 μM) to titrate 2 μM protein solutions resuspended in 50 mM Tris-HCl (pH 7.4).” left out
Chain of FoccCSP-Thr29Ala (G4Y3X1 entry or part of it T29A): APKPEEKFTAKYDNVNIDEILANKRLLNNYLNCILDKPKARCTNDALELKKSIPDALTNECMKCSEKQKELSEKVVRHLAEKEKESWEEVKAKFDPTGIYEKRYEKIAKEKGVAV
as §3

The target in assay [10] is FoccCSP-Phe27Ala (Frankliniella occidentalis, UniProt G4Y3X1, F27A). The assay is described as above. Here is the method:
as §1, with “Volatile compounds and 1-NPN were first dissolved to a concentration of 1 mM in HPLC-grade methanol and dissolved to their indicated final concentration (2–20 μM) to titrate 2 μM protein solutions resuspended in 50 mM Tris-HCl (pH 7.4).” left out
as §3

Assay [11] deals with FoccCSP-Thr28Ala (Frankliniella occidentalis, UniProt G4Y3X1, T28A). Described as above. Here is the method:
as §1, with “Volatile compounds and 1-NPN were first dissolved to a concentration of 1 mM in HPLC-grade methanol and dissolved to their indicated final concentration (2–20 μM) to titrate 2 μM protein solutions resuspended in 50 mM Tris-HCl (pH 7.4).” left out
as §3

Assay [12] addresses FoccCSP-Asp64Ala (Frankliniella occidentalis, UniProt G4Y3X1, D64A). The assay is described as above. Here is the method: as §1, with “Volatile compounds and 1-NPN were first dissolved to a concentration of 1 mM in HPLC-grade methanol and dissolved to their indicated final concentration (2–20 μM) to titrate 2 μM protein solutions resuspended in 50 mM Tris-HCl (pH 7.4).” left out
as §3

Assay [13] concerns the target FoccCSP-Glu67Ala (Frankliniella occidentalis, UniProt G4Y3X1, E67A). The assay is described as above. Here is the method: as §1, with “Volatile compounds and 1-NPN were first dissolved to a concentration of 1 mM in HPLC-grade methanol and dissolved to their indicated final concentration (2–20 μM) to titrate 2 μM protein solutions resuspended in 50 mM Tris-HCl (pH 7.4).” left out
as §3

Assay [14] has as its target FoccCSP-Lys26Ala (Frankliniella occidentalis, UniProt G4Y3X1, K26A). Described as above. Here is the method:
as §1, §3

In assay [15] the target is FoccCSP-Tyr31Ala (Frankliniella occidentalis, UniProt G4Y3X1, Y31A). Described as above. Here is the method: as §1, §3
Chain of FoccCSP-Tyr31Ala (G4Y3X1 entry or part of it Y31A): as the sequence (G4Y3X1 entry or part of it T29A) above, with A10T, Y12A counted along it
Assay [16] concerns the target FoccCSP-Gln87Ala (Frankliniella occidentalis, UniProt G4Y3X1, Q87A). Described as above. Here is the method: as §1, §3
For assay [17], the target named is recombinant wild-type FoccCSP (Frankliniella occidentalis, UniProt G4Y3X1). Description: Fluorescence (1-NPN) binding and competitive binding assay, wild-type FoccCSP. Here is the method:
(§4) FintCSP1 and FoccCSP DNA were released from pEASY-T1/FintCSP1 and pEASY-T1/FoccCSP, respectively, by restriction digestion with BamHI and XhoI and cloned into the pET-30a vector (Invitrogen). The resulting construct was transformed into Transetta (DE3) Escherichia coli competent cells (Transgen). The production of recombinant FintCSP1 and FoccCSP was induced by addition of isopropyl-β-D-1-thiogalactopyranoside (IPTG, 0.2 mM) at 15°C and purified by Ni ion affinity chromatography (Sangon Biotech, Shanghai, China). The target protein was verified by 15% SDS-PAGE, and its concentration was determined with a BCA protein assay kit (Thermo Scientific, Rockford, IL, USA). The recombinant purified protein was stored at −20°C until use.
as §1

In assay [18] the target is recombinant wild-type FintCSP1 (Frankliniella intonsa, UniProt A0A891LVF4). Description: Fluorescence (1-NPN) binding and competitive binding assay, wild-type FintCSP1. Here is the method:
as §4
as §1, with “Volatile compounds and 1-NPN were first dissolved to a concentration of 1 mM in HPLC-grade methanol and dissolved to their indicated final concentration (2–20 μM) to titrate 2 μM protein solutions resuspended in 50 mM Tris-HCl (pH 7.4).” left out

Chain of FintCSP1-Val132Ala (A0A891LVF4 entry or part of it V132A): as the sequence (A0A891LVF4 entry or part of it F27A) above, with A8F, V113A counted along it
Chain of recombinant wild-type FoccCSP (G4Y3X1 entry or part of it): as the sequence (G4Y3X1 entry or part of it T29A) above, with A10T counted along it
Chain of FintCSP1-Lys26Ala (A0A891LVF4 entry or part of it K26A): as the sequence (A0A891LVF4 entry or part of it F27A) above, with K7A, A8F counted along it
Chain of FintCSP1-Glu67Ala (A0A891LVF4 entry or part of it E67A): as the sequence (A0A891LVF4 entry or part of it F27A) above, with A8F, E48A counted along it
Chain of FoccCSP-Gln87Ala (G4Y3X1 entry or part of it Q87A): as the sequence (G4Y3X1 entry or part of it T29A) above, with A10T, Q68A counted along it
Chain of FoccCSP-Val132Ala (G4Y3X1 entry or part of it V132A): as the sequence (G4Y3X1 entry or part of it T29A) above, with A10T, V113A counted along it
Chain of FoccCSP-Thr28Ala (G4Y3X1 entry or part of it T28A): as the sequence (G4Y3X1 entry or part of it T29A) above, with T9A, A10T counted along it
Chain of recombinant wild-type FintCSP1 (A0A891LVF4 entry or part of it): as the sequence (A0A891LVF4 entry or part of it F27A) above, with A8F counted along it
Chain of FoccCSP-Glu67Ala (G4Y3X1 entry or part of it E67A): as the sequence (G4Y3X1 entry or part of it T29A) above, with A10T, E48A counted along it
Chain of FoccCSP-Phe27Ala (G4Y3X1 entry or part of it F27A): as the sequence (G4Y3X1 entry or part of it T29A) above, with F8A, A10T counted along it
Chain of FoccCSP-Asp64Ala (G4Y3X1 entry or part of it D64A): as the sequence (G4Y3X1 entry or part of it T29A) above, with A10T, D45A counted along it
Chain of FintCSP1-Thr28Ala (A0A891LVF4 entry or part of it T28A): as the sequence (A0A891LVF4 entry or part of it F27A) above, with A8F, T9A counted along it
Chain of FoccCSP-Lys26Ala (G4Y3X1 entry or part of it K26A): as the sequence (G4Y3X1 entry or part of it T29A) above, with K7A, A10T counted along it

In the case of `CC1=CC[C@H](C(C)C)C=C1` (racemic) [α-phellandrene], the EAG peak amplitude entry in assay [1] (10 mg/L in liquid paraffin) is recorded as “–0.018 mV”.

For `CC1=CC2C(CC1)C2(C)C` (single isomer, unassigned; (+)) [(+)-2-carene], in [1] (1 mg/L in liquid paraffin), the EAG peak amplitude result was “–0.016 mV”.

For the compound `c1ccc(Nc2cccc3ccccc23)cc1` [1-NPN, N-phenyl-1-naphthylamine, reference compound], the Kd in [2] was determined as 6.77 ± 0.36 µM; in [3] it was 3.3 ± 0.39 µM; in assay [4] it was 4.38 ± 0.49 µM; in [5], 3.85 ± 0.41 µM; in assay [6] it was 4.5 ± 0.61 µM; in assay [7], 7.26 ± 0.66 µM. Moreover, the Kd amounted to 3.48 ± 0.33 µM in assay [8]; 15.5 ± 1.74 µM in assay [9]; 7.09 ± 0.39 µM in assay [10]; 19.9 ± 2.43 µM in assay [11]; 31 ± 4.55 µM in [12]; 15.7 ± 2.3 µM in [13]. For the same compound, the Kd in assay [14] is 17.4 ± 1.32 µM; in assay [15], 9.79 ± 0.87 µM; in assay [16], 20.3 ± 2.25 µM; in [17], 6.36 ± 0.51 µM; in [18] it was 6.07 ± 0.4 µM.
